In patent US8426385B2 (Hainan Hdeton Science and Technology Co. Ltd., priority 2006, dated 2013):
≈ marks a conversion by molar mass, not a printed value. One block for each molecule: values may come before it.

Experiments:
[1] = Determination of inclusion stability constant Ka by UV spectrophotometry; assay type: physicochemical; conditions: 234 nm
Method: The inclusion stability constant Ka is used to determine the degree of inclusion and UV spectrophotometry is one of common methods to determine Ka. […] Meanwhile, the changes of Ka after adding ethanol are determined in the test, and the Ka values of different cyclodextrins are shown in Table 1.

[2] = aqueous solution; UV spectrum study; cited from earlier work
[3] = phase solubility studies; cited from earlier work
[4] = about 50% cyclodextrin aqueous solution, pure water; cited from earlier work
[5] = Inclusion solubilization test (paclitaxel solubility in cyclodextrin solution); assay type: physicochemical; conditions: 25° C.; for Paclitaxel solubility in cyclodextrin solution: 72 h
Description: A standard curve was plotted by A and concentration C (mg/ml) (A=393.2 C−0.0123; r=0.9998).

[6] = cited from earlier work
[7] = Solid inclusion stability, 5-day acceleration test (HPLC content); assay type: physicochemical
Method: (§1) HPLC chromatographic conditions: chromatographic column ODS C18 (250 mm×4.6 mm); mobile phase: methanol:water:acetonitrile (20:30:50); flow rate: 1.0 ml/min; detection wavelength: 228 nm; detection time: 30.00 min; detection sensitivity: 1.0000 AUFS.
Samples were put in a sealed transparent container and then placed in an illumination box equipped with fluorescent light of 4500±500 LX illumination intensity for 5 days. Sampling inspection analysis was conducted, and the test results were compared with the samples of 0 day.
Samples were placed in a clean sealed container at temperature of 60° C. for 5 days. Sampling inspection analysis was conducted, and the test results were compared with the samples of 0 day.
Samples were placed in a sealed container of constant humidity at temperature of 25° C. and relative humidity of 90±5% for 5 days. Sampling inspection analysis was conducted, and the test results were compared with the samples of 0 day.

[8] = Paclitaxel stability test in solution (HPLC assay); assay type: physicochemical; conditions: mobile phase pH=6.50, diluted 100 times
Method: as §1
The sample solutions had stable chemical properties and the content was basically unchanged.

S180 cells = assay: In vivo anti-tumor effect, S180 solid tumor model; conditions: Kunming mice, intraperitoneal, 7 days, 5 mg/kg dose (printed for the inclusion)
[9] = Animal body weight in the S180 anti-tumor test; conditions: S180 solid tumor, Kunming mice, intraperitoneal, 7 days
[10] = cyclodextrin concentration 31 %

first-level apparent stability constant Ka of cyclodextrin/paclitaxel ([1]; 60% EtOH): 4646 M⁻¹ | first-level apparent stability constant Ka of cyclodextrin/paclitaxel ([1]; H2O): 1325 M⁻¹
Molecule: hydroxypropyl-β-cyclodextrin
inclusion constant [2]: 3030 M⁻¹ | dual-inclusion constant with paclitaxel [3]: 7965 M^− | paclitaxel solubility [4]: 3400 µg/mL

first-level apparent stability constant Ka of cyclodextrin/paclitaxel ([1]; H2O): 413 M⁻¹
Molecule: OC[C@H]1O[C@@H]2O[C@H]3[C@H](O)[C@@H](O)[C@@H](O[C@H]4[C@H](O)[C@@H](O)[C@@H](O[C@H]5[C@H](O)[C@@H](O)[C@@H](O[C@H]6[C@H](O)[C@@H](O)[C@@H](O[C@H]7[C@H](O)[C@@H](O)[C@@H](O[C@H]8[C@H](O)[C@@H](O)[C@@H](O[C@H]1[C@H](O)[C@H]2O)O[C@@H]8CO)O[C@@H]7CO)O[C@@H]6CO)O[C@@H]5CO)O[C@@H]4CO)O[C@@H]3CO [β-cyclodextrin]

first-level apparent stability constant Ka of cyclodextrin/paclitaxel ([1]; 60% EtOH): 9367 M⁻¹ | first-level apparent stability constant Ka of cyclodextrin/paclitaxel ([1]; H2O): 5396 M⁻¹ | Paclitaxel solubility in cyclodextrin solution ([5]; cyclodextrin concentration 25 %): 9324 µg/mL | Paclitaxel solubility in cyclodextrin solution [5, 10]: 10182 µg/mL
Molecule: sulfobutyl-β-cyclodextrin
water-solubility [6]: > 50 g/100 g H2O

Molecule: CC(=O)O[C@H]1C(=O)[C@@]2(C)[C@H]([C@H](OC(=O)c3ccccc3)[C@]3(O)C[C@H](OC(=O)[C@H](O)[C@@H](NC(=O)c4ccccc4)c4ccccc4)C(C)=C1C3(C)C)[C@]1(OC(C)=O)CO[C@@H]1C[C@@H]2O [Paclitaxel, (2S,5R,7S,10R,13S)-10,20-bi(acetoxy)-2-benzoyl-oxy-1,7-dihydroxy-9-oxo-5,20-epoxy taxanes-11-ene-13-radical(3S)-3-benzoyl amino-3-phenyl-D-lactic acid ester]
solubility at 72 h ([5]; thermodynamic from solid, pure water, cyclodextrin concentration 0 %): 0.589 µg/mL (≈ 0.69 µM) | Content ([7]; 0 day): 99.748% | Content ([7]; High humidity, 25° C., RH 90±5%, 5 days): 89.336% | Content ([7]; High temperature, 60° C., 5 days): 91.569% | Content ([7]; Light, 4500±500 LX, 5 days): 90.346% | Content in aqueous solution ([8]; 0 h): 99.745% | Content in aqueous solution ([8]; 2 h): 99.700% | Content in aqueous solution ([8]; 4 h): 99.577% | Content in aqueous solution ([8]; 6 h): 99.648% | Content in aqueous solution ([8]; 8 h): 99.608% | anti-tumor rate (S180 cells): 82.77% | effect on animal body weight [9]: reduce the animal body weight | weight loss of animals compared with the inclusion group [9]: greater

first-level apparent stability constant Ka of cyclodextrin/paclitaxel ([1]; 60% EtOH): 19722 M⁻¹ | first-level apparent stability constant Ka of cyclodextrin/paclitaxel ([1]; H2O): 14121 M⁻¹ | Paclitaxel solubility in cyclodextrin solution [5, 10]: 11177 µg/mL
Molecule: hydroxypropyl-sulfobutyl-β-cyclodextrin

Molecule: OC[C@H]1O[C@@H]2O[C@H]3[C@H](O)[C@@H](O)[C@@H](O[C@H]4[C@H](O)[C@@H](O)[C@@H](O[C@H]5[C@H](O)[C@@H](O)[C@@H](O[C@H]6[C@H](O)[C@@H](O)[C@@H](O[C@H]7[C@H](O)[C@@H](O)[C@@H](O[C@H]8[C@H](O)[C@@H](O)[C@@H](O[C@H]9[C@H](O)[C@@H](O)[C@@H](O[C@H]1[C@H](O)[C@H]2O)O[C@@H]9CO)O[C@@H]8CO)O[C@@H]7CO)O[C@@H]6CO)O[C@@H]5CO)O[C@@H]4CO)O[C@@H]3CO [γ-cyclodextrin]
dual-inclusion constant with paclitaxel [3]: 785 M⁻¹
